Data from patent publication US20220339135A1, “COMPOSITIONS AND METHODS FOR MODULATING AN INFLAMMATORY RESPONSE” (Enzychem Lifesciences Corporation, priority 2019, published 2022).

Legend:
[1] = tested on: intracellular ROS in BMDMs and THP-1 cells; assay: Gemcitabine-induced intracellular ROS measurement; format: cell-based; settings: gemcitabine 10 μg/mL 3 h, dose-dependent
Method: A total of 1×10^6 BMDMs and THP-1 were seeded, cultured, and subsequently exposed to various concentrations of PLAG with gemcitabine (10 μg/mL) for 3 h. The cells were then incubated with the ROS-sensitive probe CM-H2DCFDA (Invitrogen™) for 30 min at 37° C. in the dark. After incubation, the cells were washed 3 times with PBS and immediately analyzed using FACS verse (BD biosciences) with an excitation/emission peak at 495/527 nm. A total of 10,000 cells were counted in each determination, and results presented are means±S.E. of three independent experiments. Intracellular ROS production was also measured with a confocal laser scanning microscope (Zeiss LSM 800, Oberkochen, Germany). After incubating CM-H2DCFDA as above, the cells were fixed with 4% paraformaldehyde for 30 min and washed 3 times with PBS before photographing. The excitation and emission wavelengths were identical as described above, and a minimum of 5 random fields was captured for each culture.

[2] = tested on: intracellular calcium in dHL-60 cells; assay: Fluo-4 calcium assay; format: cell-based, human
Method: Human leukemia line (HL-60) cells were differentiated (dHL-60) to neutrophil-like cells in the culture medium with the addition of 1.3% DMSO (Sigma) for 5 days in a humidified atmosphere at 37° C. without changing the medium. dHL-60 cells (2×10^5 cells/mL) were loaded with 5 μM fluo-4 AM for 45 minutes and washed three times with warmed modified (37° C.) HBSS buffer (137.93 mM NaCl, 5.33 mM KCl, 2 mM CaCl2), 1 mM MgSO4, 2.38 mM HEPES, 5.5 mM glucose, pH to 7.4). The cells were seeded on black-walled 96-well plates and then treated with vehicle (0.1% DMSO), ionomycin (5 μM; positive control) or PLAG (100 μg/mL) just before measurement. Baseline fluorescence was measured before treatment, and fluorescence was read every 20 s for 700 s using an excitation wavelength of 494 nm, an emission wavelength of 516 nm in a FlexStation 3 microplate reader (Molecular Devices). Fluorescence values were reported as F/Fo according to the calculation: [ΔF=(494 nm)f/(516 nm)f−(494 nm)0/(516 nm)0]. For studies in 0 mM external calcium, the cells were loaded as mentioned earlier. After being loaded, the cells were washed four times with calcium-free HBSS. The remainder of the study was carried out in calcium-free HBSS.
(§1) HL-60 cells were differentiated (dHL-60) to neutrophil-like cells in the culture medium with the addition of 1.3% DMSO (Sigma) for 5 days in a humidified atmosphere at 37° C. without changing the medium. dHL-60 cells (2×10^5 cells/mL) were loaded with 5 μM fluo-4 AM for 45 minutes and washed three times with warmed modified (37° C.) HBSS buffer (137.93 mM NaCl, 5.33 mM KCl, 2 mM CaCl2, 1 mM MgSO4, 2.38 mM HEPES, 5.5 mM glucose, pH to 7.4). […] Baseline fluorescence was measured before treatment, and fluorescence was read every 20 seconds for 700 seconds using an excitation wavelength of 494 nm, an emission wavelength of 516 nm in a FlexStation 3 microplate reader (Molecular Devices). Fluorescence values were reported as F/Fo according to the calculation: [ΔF=(494 nm)f/(516 nm)f−(494 nm)0/(516 nm)0]. […]
as §1, with “s” for “seconds”, “Devices).” for “Devices). Fluorescence values were reported as F/Fo according to the calculation: [ΔF=(494 nm)f/(516 nm)f−(494 nm)0/(516 nm)0].”

[3] = tested on: p47phox in Raw264.7 cells; assay: LPS-induced p47phox recruitment; format: cell-based; settings: LPS/PLAG treatment
Method: Raw264.7 cells were divided into two groups: 1) LPS treated group and 2) LPS/PLAG treated group. For the LPS treated group, cells were treated with 100 μg/ml of DMSO (as solvent control) for 1 hour and treated with LPS (100 ng/ml) for 15, 30, 60, and 120 minutes. For LPS/PLAG treated group, cells were treated with PLAG (100 μg/ml) for 1 hour and treated with LPS (100 ng/ml) for 15, 30, 60, and 120 minutes. Cells were then fixed and stained using rat anti-TLR4/MD2 antibody with Alexa488-conjugated anti-rat IgG secondary antibody. These were analyzed by confocal microscopy. Raw264.7 cells stimulated under the same conditions were fixed, permeabilized, and stained with CM-H2DCFDA, the LYSO-ID® Lysosomal Detection Kit and rabbit anti-p47phox. Confocal microscopy was performed; all data shown represent one experiment performed in triplicate.

[4] = tested on: NET formation of neutrophil, BALF derived cells; assay: NETosis of PAK-introduced BALF derived cells; format: cell-based, mice; settings: PAK/PLAG vs PAK
Method: 2 hours after PAK infection, BALF derived cells were harvested and detected extracellular DNA-elastase complex by using ELISA and visualized by using confocal microscopy (×400) or scanning electron microscope (SEM) (×8000). […] were washed with PBS and mounted in DAPI-containing fluorescence microscopy mounting medium (Invitrogen). Samples were analyzed with a laser scanning confocal microscope (Carl Zeiss, Oberkochen, Germany).

## CCCCC/C=C\C/C=C\CCCCCCCC(=O)OC(COC(C)=O)COC(=O)CCCCCCCCCCCCCCC (racemic) [PLAG, 1-palmitoyl-2-linoleoyl-3-acetylglycerol]
[1]
  gemcitabine-induced intracellular ROS production: effectively reduced
[2]; PLAG 100 μg/mL, ionomycin 5 μM
  cytosolic calcium of dHL-60 cells: increased
[2]; vs imiquimod alone, extracellular calcium-free and containing condition
  intracellular calcium levels, co-treatment with imiquimod: significantly increased
[3]
  p47phox recruitment initiated: 15 min
  return to homeostatic levels of p47phox: 60 min
[4]
  NET formation of neutrophil: accelerated
